The text below walks through data of BindingDB's records for doi:10.1016/s0960-894x(99)00666-6 (Merck Research Laboratories, 2000).

For this experiment, the target named is Integrase (Human immunodeficiency virus 1, UniProt Q7ZJM1). In words: ChEBML_90573. An excerpt:
Inhibitory activity against HIV-1 integrase

Sequence of Integrase (Q7ZJM1 whole entry): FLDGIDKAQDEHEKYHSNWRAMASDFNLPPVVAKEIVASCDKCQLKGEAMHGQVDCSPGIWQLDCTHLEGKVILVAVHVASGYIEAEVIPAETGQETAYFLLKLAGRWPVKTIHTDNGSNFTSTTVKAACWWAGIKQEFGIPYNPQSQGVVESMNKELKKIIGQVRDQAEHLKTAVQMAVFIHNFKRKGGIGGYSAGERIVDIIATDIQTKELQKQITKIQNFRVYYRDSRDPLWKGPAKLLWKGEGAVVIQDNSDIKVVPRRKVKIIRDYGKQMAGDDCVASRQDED

`CCCCC(C)/C=C(\C)C(=O)O[C@@H]1CC[C@H](C(=O)O)[C@@]2(C)CC(=C(C)C=O)C(=O)C=C12` (stereo partly drawn) [(1S,4R,7S,8aR)-4-((E)-2,4-Dimethyl-oct-2-enoyloxy)-7-(1-formyl-vinyl)-8a-methyl-6-oxo-1,2,3,4,6,7,8,8a-octahydro-naphthalene-1-carboxylic acid]: the IC50 amounted to 3 µM.
